The values that follow come from patent publication US20200172529A1, “Chemical Compound, Pharmaceutical Composition Thereof, and Use and Application Thereof” (Beijing Hanmi Pharm. Co., Ltd., priority 2017, published 2020).

pIC50: −log10 of the molar value.

Holding throughout (format): biochemical
The target of one experiment is T1, TYK2 kinase (Homo sapiens, UniProt P29597).
T1 construct: purchased Life Technologies PR8440C
As to the kind of experiment: Inhibition assay of TYK2 kinase activity (ADP-Glo Kinase Assay). In a few lines: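 Enzyme at 0.8 ng/mL (2-fold final) in 40 mM Tris-HCl pH 7.5, 20 mM MgCl2, 0.1 mg/mL BSA, 1 mM DTT, preincubated 10 min with compound (6 points, 10-fold dilutions from 10 μM). ATP plus polyE4Y1 then added for 60 min at room temperature. ADP-Glo luminescence read and IC50 derived.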

Another experiment has as its target JAK1 kinase (Homo sapiens, UniProt P23458). Briefly: Inhibition assay of JAK1 kinase activity (ADP-Glo Kinase Assay). An excerpt: Inhibition assay of JAK1 kinase activity: the method in ADP-Glo™ Kinase Assay (Promega, V9102) was used to determine the inhibitory activity of the test compounds against JAK1 kinase.
In a further experiment the target is JAK2 kinase (Homo sapiens, UniProt O60674). As to the kind of experiment: Inhibition assay of JAK2 kinase activity (ADP-Glo Kinase Assay). From the text: Inhibition assay of JAK2 kinase activity: the method in ADP-Glo™ Kinase Assay (Promega, V9102) was used to determine the inhibitory activity of the test compounds against JAK2 kinase.
On the technique in general: ADP-Glo turns the ADP formed in a reaction into a luminescent signal.

Another experiment deals with T2, JAK3 kinase (Homo sapiens, UniProt P52333).
T2 sequence (P52333 1-1124): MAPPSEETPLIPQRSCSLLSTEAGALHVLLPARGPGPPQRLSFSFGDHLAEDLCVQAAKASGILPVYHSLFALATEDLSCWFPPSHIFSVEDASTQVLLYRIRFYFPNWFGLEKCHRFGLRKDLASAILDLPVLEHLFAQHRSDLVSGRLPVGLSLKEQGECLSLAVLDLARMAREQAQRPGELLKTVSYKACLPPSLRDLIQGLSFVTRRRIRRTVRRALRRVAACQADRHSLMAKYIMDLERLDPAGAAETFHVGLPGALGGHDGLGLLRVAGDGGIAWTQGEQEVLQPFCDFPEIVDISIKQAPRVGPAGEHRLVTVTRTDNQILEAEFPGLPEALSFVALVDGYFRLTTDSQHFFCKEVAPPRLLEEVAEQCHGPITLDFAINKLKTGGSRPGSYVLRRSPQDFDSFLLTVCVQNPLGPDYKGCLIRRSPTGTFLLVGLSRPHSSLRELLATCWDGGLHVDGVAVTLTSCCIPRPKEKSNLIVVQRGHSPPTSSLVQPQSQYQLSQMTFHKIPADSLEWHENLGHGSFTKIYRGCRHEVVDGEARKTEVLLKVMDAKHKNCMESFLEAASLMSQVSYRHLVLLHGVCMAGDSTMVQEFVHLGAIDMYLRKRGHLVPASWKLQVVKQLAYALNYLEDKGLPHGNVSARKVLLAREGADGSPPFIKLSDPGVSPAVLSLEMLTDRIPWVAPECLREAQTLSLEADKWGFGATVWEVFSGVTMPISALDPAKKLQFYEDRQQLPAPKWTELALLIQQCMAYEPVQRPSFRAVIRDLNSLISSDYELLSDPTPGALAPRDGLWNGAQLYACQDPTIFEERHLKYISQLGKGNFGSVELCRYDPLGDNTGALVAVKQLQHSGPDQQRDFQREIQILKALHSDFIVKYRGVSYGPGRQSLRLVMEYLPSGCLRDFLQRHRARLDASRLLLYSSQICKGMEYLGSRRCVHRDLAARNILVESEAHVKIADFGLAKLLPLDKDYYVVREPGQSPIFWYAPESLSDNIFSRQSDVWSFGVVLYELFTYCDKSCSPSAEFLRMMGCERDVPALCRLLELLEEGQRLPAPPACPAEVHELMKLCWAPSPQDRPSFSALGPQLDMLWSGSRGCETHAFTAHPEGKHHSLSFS
As to the kind of experiment: Inhibition assay of JAK3 kinase activity (ADP-Glo Kinase Assay). From the text: Inhibition assay of JAK3 kinase activity: the method in ADP-Glo™ Kinase Assay (Promega, V9102) was used to determine the inhibitory activity of the test compounds against JAK3 kinase.

Another experiment has as its target SYK kinase (Homo sapiens, UniProt P43405). As to the kind of experiment: Inhibition assay of SYK kinase activity (ADP-Glo Kinase Assay). From the text: Inhibition assay of SYK kinase activity: the method in ADP-Glo™ Kinase Assay (Promega, V9102) was used to determine the inhibitory activity of the test compounds against SYK kinase.

JAK2 kinase, sequence (O60674 whole entry): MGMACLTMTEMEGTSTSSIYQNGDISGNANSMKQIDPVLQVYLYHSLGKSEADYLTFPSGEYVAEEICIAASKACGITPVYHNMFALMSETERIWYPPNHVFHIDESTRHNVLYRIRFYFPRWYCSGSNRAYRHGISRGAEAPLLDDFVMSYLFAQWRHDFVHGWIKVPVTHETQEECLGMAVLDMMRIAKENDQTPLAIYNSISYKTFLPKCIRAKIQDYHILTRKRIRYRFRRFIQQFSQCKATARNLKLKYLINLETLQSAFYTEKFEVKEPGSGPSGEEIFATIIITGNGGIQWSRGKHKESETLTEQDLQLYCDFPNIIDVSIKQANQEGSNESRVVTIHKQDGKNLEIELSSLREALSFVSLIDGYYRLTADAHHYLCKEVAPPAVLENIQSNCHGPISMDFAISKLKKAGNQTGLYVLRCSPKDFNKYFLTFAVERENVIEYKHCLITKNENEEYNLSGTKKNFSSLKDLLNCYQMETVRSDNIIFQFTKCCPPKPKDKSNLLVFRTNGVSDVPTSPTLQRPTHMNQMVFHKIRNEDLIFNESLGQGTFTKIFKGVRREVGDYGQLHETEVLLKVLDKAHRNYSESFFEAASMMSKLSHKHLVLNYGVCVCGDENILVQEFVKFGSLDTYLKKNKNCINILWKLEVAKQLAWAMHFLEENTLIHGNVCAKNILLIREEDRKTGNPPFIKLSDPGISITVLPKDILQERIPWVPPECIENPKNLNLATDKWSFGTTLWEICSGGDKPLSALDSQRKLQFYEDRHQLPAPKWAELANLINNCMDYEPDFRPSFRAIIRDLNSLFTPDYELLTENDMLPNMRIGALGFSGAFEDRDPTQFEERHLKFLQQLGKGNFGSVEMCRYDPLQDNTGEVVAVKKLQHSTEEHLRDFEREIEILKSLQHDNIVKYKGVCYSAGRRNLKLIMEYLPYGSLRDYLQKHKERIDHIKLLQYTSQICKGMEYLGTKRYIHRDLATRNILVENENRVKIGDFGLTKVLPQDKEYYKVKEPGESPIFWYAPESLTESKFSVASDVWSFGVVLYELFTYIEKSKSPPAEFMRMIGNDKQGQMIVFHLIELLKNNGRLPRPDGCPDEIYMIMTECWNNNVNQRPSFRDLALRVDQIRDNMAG
JAK1 kinase, sequence (P23458 whole entry): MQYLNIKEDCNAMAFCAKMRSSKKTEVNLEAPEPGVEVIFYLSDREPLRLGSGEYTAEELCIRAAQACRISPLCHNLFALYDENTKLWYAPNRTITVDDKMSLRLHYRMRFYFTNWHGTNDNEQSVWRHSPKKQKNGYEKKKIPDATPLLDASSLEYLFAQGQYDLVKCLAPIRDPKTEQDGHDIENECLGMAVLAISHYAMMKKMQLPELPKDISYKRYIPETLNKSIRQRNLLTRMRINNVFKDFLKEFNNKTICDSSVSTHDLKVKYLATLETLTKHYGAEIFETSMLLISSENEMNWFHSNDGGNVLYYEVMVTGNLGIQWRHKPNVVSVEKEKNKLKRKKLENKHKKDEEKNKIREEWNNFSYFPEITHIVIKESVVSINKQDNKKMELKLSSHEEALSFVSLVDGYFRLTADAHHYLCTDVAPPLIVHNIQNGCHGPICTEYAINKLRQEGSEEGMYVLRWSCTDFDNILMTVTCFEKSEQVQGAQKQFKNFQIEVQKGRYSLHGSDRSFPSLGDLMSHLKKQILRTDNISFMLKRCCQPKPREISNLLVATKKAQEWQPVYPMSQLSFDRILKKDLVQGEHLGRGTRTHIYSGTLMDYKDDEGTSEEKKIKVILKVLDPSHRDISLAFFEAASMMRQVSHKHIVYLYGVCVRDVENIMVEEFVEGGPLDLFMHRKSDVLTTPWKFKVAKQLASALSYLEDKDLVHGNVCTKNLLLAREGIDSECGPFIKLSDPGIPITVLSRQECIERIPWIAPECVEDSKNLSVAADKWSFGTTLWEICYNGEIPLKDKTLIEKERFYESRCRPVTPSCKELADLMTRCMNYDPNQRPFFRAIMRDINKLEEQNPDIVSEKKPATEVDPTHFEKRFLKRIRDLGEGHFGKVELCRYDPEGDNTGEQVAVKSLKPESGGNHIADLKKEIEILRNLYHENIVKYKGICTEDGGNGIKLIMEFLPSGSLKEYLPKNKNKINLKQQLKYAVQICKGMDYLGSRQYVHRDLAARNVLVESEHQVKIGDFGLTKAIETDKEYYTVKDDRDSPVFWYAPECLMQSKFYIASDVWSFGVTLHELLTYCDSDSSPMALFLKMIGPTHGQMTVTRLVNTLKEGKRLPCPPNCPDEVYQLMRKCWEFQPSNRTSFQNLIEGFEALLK
T1 sequence (P29597 whole entry): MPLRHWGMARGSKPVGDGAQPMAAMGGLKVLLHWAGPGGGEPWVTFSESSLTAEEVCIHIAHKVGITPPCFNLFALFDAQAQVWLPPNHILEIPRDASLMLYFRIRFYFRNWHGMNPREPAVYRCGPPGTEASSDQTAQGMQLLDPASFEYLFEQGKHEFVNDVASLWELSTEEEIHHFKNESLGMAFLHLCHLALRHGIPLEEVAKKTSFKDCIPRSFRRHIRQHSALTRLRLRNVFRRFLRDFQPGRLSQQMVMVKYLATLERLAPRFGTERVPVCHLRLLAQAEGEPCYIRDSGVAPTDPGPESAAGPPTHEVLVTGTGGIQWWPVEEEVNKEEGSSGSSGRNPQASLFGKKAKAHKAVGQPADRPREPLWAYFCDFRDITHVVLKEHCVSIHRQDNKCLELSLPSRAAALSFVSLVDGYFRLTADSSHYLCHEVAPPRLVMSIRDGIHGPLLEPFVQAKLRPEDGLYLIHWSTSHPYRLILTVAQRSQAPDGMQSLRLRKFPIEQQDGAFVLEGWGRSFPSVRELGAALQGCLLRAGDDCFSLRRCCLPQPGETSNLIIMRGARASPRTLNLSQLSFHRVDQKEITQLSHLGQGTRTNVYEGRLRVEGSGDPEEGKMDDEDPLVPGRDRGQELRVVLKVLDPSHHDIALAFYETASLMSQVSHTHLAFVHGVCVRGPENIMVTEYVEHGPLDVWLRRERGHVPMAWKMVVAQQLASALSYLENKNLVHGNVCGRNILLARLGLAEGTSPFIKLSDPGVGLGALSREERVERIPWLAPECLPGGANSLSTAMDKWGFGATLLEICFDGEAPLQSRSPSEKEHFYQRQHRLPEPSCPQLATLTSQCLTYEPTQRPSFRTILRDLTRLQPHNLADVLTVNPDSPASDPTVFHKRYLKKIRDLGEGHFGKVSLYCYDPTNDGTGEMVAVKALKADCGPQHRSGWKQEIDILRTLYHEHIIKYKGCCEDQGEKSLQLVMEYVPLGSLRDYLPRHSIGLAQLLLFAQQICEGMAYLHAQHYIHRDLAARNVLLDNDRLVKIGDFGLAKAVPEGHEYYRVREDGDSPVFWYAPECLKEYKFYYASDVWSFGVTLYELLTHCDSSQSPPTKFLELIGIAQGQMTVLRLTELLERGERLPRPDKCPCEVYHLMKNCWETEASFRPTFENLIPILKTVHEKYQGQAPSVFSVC

For the compound `C#CCCNc1nc(Nc2ccc3c(c2)NC[C@H](O)CO3)ncc1C(N)=O` [Example 66, 4-(but-3-yn-1-ylamino)-2-(((S)-2,3,4,5-tetrahydro-3-hydroxybenzo[b][1,4]oxazepin-7-yl)amino)pyrimidin-5-carboxamide], the pIC50 (usually the IC50 on a negative log10 scale, so that one unit is a factor of ten) at TYK2 kinase was more than 8.00; against JAK1 kinase it was more than 8.00; against JAK2 kinase, 7.00 to 8.00; against JAK3 kinase, 7.00 to 8.00; at SYK kinase, 7.00 to 8.00.

Turning to `CC1(Nc2nc(Nc3ccc4c(c3)NC[C@H](O)CO4)ncc2C(N)=O)CC1` [Example 68, 4-((1-methylcyclopropyl)amino)-2-(((S)-2,3,4,5-tetrahydro-3-hydroxybenzo[b][1,4]oxazepin-7-yl)amino)pyrimidin-5-carboxamide], the pIC50 was more than 8.00 against TYK2 kinase; more than 8.00 against JAK1 kinase; more than 8.00 against JAK2 kinase; 7.00 to 8.00 against JAK3 kinase; 7.00 to 8.00 against SYK kinase.

In the case of `CCCNc1nc(Nc2ccc3c(c2)NC[C@H](O)CO3)ncc1C(N)=O` [Example 69, 4-(propylamino)-2-(((S)-2,3,4,5-tetrahydro-3-hydroxybenzo[b][1,4]oxazepin-7-yl)amino)pyrimidin-5-carboxamide], the pIC50 on TYK2 kinase was more than 8.00; against JAK1 kinase, more than 8.00; against JAK2 kinase it was 7.00 to 8.00; against JAK3 kinase, 7.00 to 8.00; on SYK kinase it was 7.00 to 8.00.

For `C#CCCCNc1nc(Nc2ccc3c(c2)NC[C@H](O)CO3)ncc1C(N)=O` [Example 72, 4-(pent-4-yn-1-ylamino)-2-(((S)-2,3,4,5-tetrahydro-3-hydroxybenzo[b][1,4]oxazepin-7-yl)amino)pyrimidin-5-carboxamide], the pIC50 is more than 8.00 at TYK2 kinase; more than 8.00 on JAK1 kinase; more than 8.00 against JAK2 kinase; more than 8.00 against JAK3 kinase; 7.00 to 8.00 against SYK kinase.

For `C=CCCNc1nc(Nc2ccc3c(c2)NC[C@H](O)CO3)ncc1C(N)=O` [Example 76, 4-(but-3-enylamino)-2-(((S)-2,3,4,5-tetrahydro-3-hydroxybenzo[b][1,4]oxazepin-7-yl)amino)pyrimidin-5-carboxamide], the pIC50 on TYK2 kinase is 7.00 to 8.00; against JAK1 kinase, more than 8.00; at JAK2 kinase it was more than 8.00; against JAK3 kinase it was more than 8.00; at SYK kinase it was 7.00 to 8.00.

`COCCO[C@H]1CNc2cc(Nc3ncc(C(N)=O)c(NC4CC4)n3)ccc2OC1` [Example 78, 4-(cyclopropylamino)-2-(((S)-2,3,4,5-tetrahydro-3-methoxyethoxybenzo[b][1,4]oxazepin-7-yl)amino)pyrimidin-5-carboxamide]: the pIC50 on TYK2 kinase is more than 8.00; at JAK1 kinase, more than 8.00; on JAK2 kinase, 7.00 to 8.00; against JAK3 kinase, 7.00 to 8.00; at SYK kinase it was 7.00 to 8.00.

As to `CCO[C@H]1CNc2cc(Nc3ncc(C(N)=O)c(NC4CC4)n3)ccc2OC1` [Example 79, 4-(cyclopropylamino)-2-(((S)-2,3,4,5-tetrahydro-3-ethoxybenzo[b][1,4]oxazepin-7-yl)amino)pyrimidin-5-carboxamide], the pIC50 against TYK2 kinase was more than 8.00; on JAK1 kinase, more than 8.00; on JAK2 kinase, 7.00 to 8.00; against JAK3 kinase, 7.00 to 8.00; against SYK kinase it was 7.00 to 8.00.

For the compound `CO[C@@H]1CNc2cc(Nc3ncc(C(N)=O)c(NC4CC4)n3)ccc2OC1` [Example 80, 4-(cyclopropylamino)-2-(((R)-2,3,4,5-tetrahydro-3-methoxybenzo[b][1,4]oxazepin-7-yl)amino)pyrimidin-5-carboxamide], the pIC50 on TYK2 kinase is more than 8.00; at JAK1 kinase it was 7.00 to 8.00; on JAK2 kinase it was more than 8.00; on JAK3 kinase it was more than 8.00; on SYK kinase, 7.00 to 8.00.

As for `COCCO[C@@H]1CNc2cc(Nc3ncc(C(N)=O)c(NC4CC4)n3)ccc2OC1` [Example 86, 4-(cyclopropylamino)-2-(((R)-2,3,4,5-tetrahydro-3-methoxyethoxybenzo[b][1,4]oxazepin-7-yl)amino)pyrimidin-5-carboxamide], the pIC50 is more than 8.00 on TYK2 kinase; 7.00 to 8.00 on JAK1 kinase; more than 8.00 against JAK2 kinase; 7.00 to 8.00 at JAK3 kinase; 7.00 to 8.00 on SYK kinase.

As to `[2H]C([2H])([2H])O[C@H]1CNc2cc(Nc3ncc(C(N)=O)c(NC4CC4)n3)ccc2OC1` [Example 87, 4-(cyclopropylamino)-2-(((S)-2,3,4,5-tetrahydro-3-(trideuteromethoxy)benzo[b][1,4]oxazepin-7-yl)amino)pyrimidin-5-carboxamide], the pIC50 at TYK2 kinase is more than 8.00; at JAK1 kinase it was more than 8.00; against JAK2 kinase, more than 8.00; against JAK3 kinase it was 7.00 to 8.00; on SYK kinase it was 7.00 to 8.00.

In the case of `COCCOCCO[C@H]1CNc2cc(Nc3ncc(C(N)=O)c(NC4CC4)n3)ccc2OC1` [Example 89, 4-(cyclopropylamino)-2-(((S)-2,3,4,5-tetrahydro-3-(2-(2-methoxyethoxy)ethoxy)benzo[b][1,4]oxazepin-7-yl)amino)pyrimidin-5-carboxamide], the pIC50 at TYK2 kinase is more than 8.00; on JAK1 kinase, more than 8.00; on JAK2 kinase, 7.00 to 8.00; on JAK3 kinase, 7.00 to 8.00; against SYK kinase, 7.00 to 8.00.

For the compound `CCOC(=O)CO[C@H]1CNc2cc(Nc3ncc(C(N)=O)c(NC4CC4)n3)ccc2OC1` [Example 91, 4-(cyclopropylamino)-2-(((S)-2,3,4,5-tetrahydro-3-ethoxycarbonylmethoxybenzo[b][1,4]oxazepin-7-yl)amino)pyrimidin-5-carboxamide], the pIC50 on TYK2 kinase was more than 8.00; at JAK1 kinase, more than 8.00; against JAK2 kinase, 7.00 to 8.00; against JAK3 kinase, 7.00 to 8.00; on SYK kinase, 7.00 to 8.00.

As for `NC(=O)c1cnc(Nc2ccc3c(c2)NC[C@H](OCCO)CO3)nc1NC1CC1` [Example 92, 4-(cyclopropylamino)-2-(((S)-2,3,4,5-tetrahydro-3-(2-hydroxyethoxy)benzo[b][1,4]oxazepin-7-yl)amino)pyrimidin-5-carboxamide], the pIC50 was more than 8.00 against TYK2 kinase; more than 8.00 against JAK1 kinase; more than 8.00 on JAK2 kinase; more than 8.00 against JAK3 kinase; 7.00 to 8.00 on SYK kinase.

Consider `NC(=O)c1cnc(Nc2ccc3c(c2)NC[C@H](OCC(=O)O)CO3)nc1NC1CC1` [Example 94, 4-(cyclopropylamino)-2-(((S)-2,3,4,5-tetrahydro-3-(carboxymethoxy)benzo[b][1,4]oxazepin-7-yl)amino)pyrimidin-5-carboxamide], for which the pIC50 at TYK2 kinase was more than 8.00; on JAK1 kinase, more than 8.00; at JAK2 kinase, more than 8.00; against JAK3 kinase, 7.00 to 8.00; against SYK kinase, 7.00 to 8.00.

For the compound `CCOCCO[C@H]1CNc2cc(Nc3ncc(C(N)=O)c(NC4CC4)n3)ccc2OC1` [Example 95, 4-(cyclopropylamino)-2-(((S)-2,3,4,5-tetrahydro-3-(2-ethoxyethoxy)benzo[b][1,4]oxazepin-7-yl)amino)pyrimidin-5-carboxamide], the pIC50 against TYK2 kinase is more than 8.00; against JAK1 kinase, more than 8.00; against JAK2 kinase it was 7.00 to 8.00; at JAK3 kinase, more than 8.00; on SYK kinase, 7.00 to 8.00.
